Measured values reported in patent US20190159450A1, “PYRIDINE-BASED COMPOUND INCLUDING ISOXAZOLINE RING AND USE THEREOF AS HERBICIDE” (MOGHU RESEARCH CENTER LTD., priority 2016, published 2019).

Experiments:
Assay type in all cases: in vivo
[1] = tested on: Abutilon theophrasti Medicus; assay: Herbicidal activity test, post-weeds emergence treatment; conditions: assessed after 2 to 3 weeks, 0: no effect, 10: complete death
Experimental: (§1) A rectangular plastic pot with a surface area of 300 cm^2 was filled with sandy loam soil and mixed soil at a ratio of 1:1, and four kinds of weeds including Quamoclit pennata, Abutilon theophrasti Medicus, and Aeschynomene indica, Xanthium strumarium were sown therein. In another pot made in the same way, three kinds of crop seeds including maize, wheat, and rice were sown. The pots were watered and one day later, a medicament was sprayed thereon. The spraying was performed by using a track sprayer (R&D Sprayer, USA) equipped with Teejet 8002EVS (Spraying Systems Co., USA) nozzle, and the spray amount was controlled to be 1000 L/ha. A spray solution was prepared by dissolving the compound of each example or a control material in acetone, and then, adding the same amount of 0.1% (v/v) tween 20 aqueous solution thereto. The spray amount was 200 g/ha. The pots were placed in a greenhouse in which the temperature was maintained at 25° C. to 30° C. during the day and 15° C. to 25° C. during the night, and was regularly watered. After 2 to 3 weeks from the spraying of the compounds or the control material, the efficacy and the damages on each weed and each crop were assessed according to the scale of 0-10 (0: no effect, 10: complete death) scale and the results are shown in Table 3 below.
(§2) Pots for crops and weeds were prepared in the same manner as in Experimental Example 1, and then, when the crops and the weeds were raised up to 2 weeks roughly on a third-leaf stage, the compounds and the control material were sprayed thereon in the same manner as described above. The spray amount was 200 g/ha. After 2 to 3 weeks from the spraying of the test substance or the control substance, the efficacy and the damages on each weed and each crop were assessed according to the scale of 0-10 (0: no effect, 10: complete death) scale.
(§3) Pots for crops and weeds were prepared in the same manner as the test method illustrated in Table 5, and four kinds of weeds selected from Quamoclit pennata, Abutilon theophrasti Medicus, and Aeschynomene indica, Xanthium strumarium were used. The spray amount was 200 g/ha for crops and 50 g/ha for weeds.

Xanthium strumarium [2] = assay: as above; conditions: assessed after 2 to 3 weeks, 0: no effect, 10: complete death
Experimental: as §1, §2, §3

Aeschynomene indica [3] = assay: as above; conditions: assessed after 2 to 3 weeks, 0: no effect, 10: complete death
Experimental: as §1, §2, §3

Quamoclit pennata [4] = assay: as above; conditions: assessed after 2 to 3 weeks, 0: no effect, 10: complete death
Experimental: as §1, §2, §3

[5] = tested on: Abutilon theophrasti Medicus; assay: Herbicidal activity test, pre-weeds emergence treatment; conditions: assessed 2 to 3 weeks after spraying, scale 0-10 (0: no effect, 10: complete death)
Experimental: as §1
(§4) Pots for crops and weeds were prepared in the same manner as the test method illustrated in Table 3, and three kinds of weeds selected from Quamoclit pennata, Abutilon theophrasti Medicus, and Aeschynomene indica, Xanthium strumarium were used.

Xanthium strumarium [6] = assay: as above; conditions: assessed 2 to 3 weeks after spraying, scale 0-10 (0: no effect, 10: complete death)
Experimental: as §1, §4

Aeschynomene indica [7] = assay: as above; conditions: assessed 2 to 3 weeks after spraying, scale 0-10 (0: no effect, 10: complete death)
Experimental: as §1, §4

Quamoclit pennata [8] = assay: as above; conditions: assessed 2 to 3 weeks after spraying, scale 0-10 (0: no effect, 10: complete death)
Experimental: as §1, §4

wheat [9] = assay: Herbicidal activity test, pre-weeds emergence treatment (crop damage); conditions: assessed 2 to 3 weeks after spraying, scale 0-10 (0: no effect, 10: complete death)
Experimental: as §1, §4

rice [10] = assay: as above; conditions: assessed 2 to 3 weeks after spraying, scale 0-10 (0: no effect, 10: complete death)
Experimental: as §1, §4

maize [11] = assay: as above; conditions: assessed 2 to 3 weeks after spraying, scale 0-10 (0: no effect, 10: complete death)
Experimental: as §1, §4

wheat [12] = assay: Herbicidal activity test, post-weeds emergence treatment (crop damage); conditions: assessed after 2 to 3 weeks, 0: no effect, 10: complete death
Experimental: as §1, §2, §3

rice [13] = assay: as above; conditions: assessed after 2 to 3 weeks, 0: no effect, 10: complete death
Experimental: as §1, §2, §3

maize [14] = assay: as above; conditions: assessed after 2 to 3 weeks, 0: no effect, 10: complete death
Experimental: as §1, §2, §3

[15] = spray amount 50 g/ha for weeds, Table 6
[16] = spray amount 200 g/ha for crops, Table 6

Row | Structure (SMILES) | ABUTH (Abutilon theophrasti Medicus) herbicidal efficacy, scale of 0-10 [1, 15] | XANST (Xanthium strumarium) herbicidal efficacy, scale of 0-10 (Xanthium strumarium [2]; [15]) | AESIN (Aeschynomene indica) herbicidal efficacy, scale of 0-10 (Aeschynomene indica [3]; [15]) | IPOAN (Quamoclit pennata) herbicidal efficacy, scale of 0-10 (Quamoclit pennata [4]; [15]) | PRE ABUTH (Abutilon theophrasti Medicus), efficacy score ([5]; Table 4, 200 g/ha) | PRE XANST (Xanthium strumarium), efficacy score (Xanthium strumarium [6]; Table 4, 200 g/ha) | PRE AESIN (Aeschynomene indica), efficacy score (Aeschynomene indica [7]; Table 4, 200 g/ha) | PRE IPOAN (Quamoclit pennata), efficacy score (Quamoclit pennata [8]; Table 4, 200 g/ha) | PRE TRZAW (wheat), damage score (wheat [9]; Table 4, 200 g/ha) | PRE ORYSA (rice), damage score (rice [10]; Table 4, 200 g/ha) | PRE ZEAMX (maize), damage score (maize [11]; Table 4, 200 g/ha) | TRZAW (wheat) damage, scale of 0-10 (wheat [12]; [16]) | ORYSA (rice) damage, scale of 0-10 (rice [13]; [16]) | ZEAMX (maize) damage, scale of 0-10 (maize [14]; [16]) | ABUTH (Abutilon theophrasti Medicus) herbicidal efficacy, scale of 0-10 ([1]; spray amount 200 g/ha, Table 5) | XANST (Xanthium strumarium) herbicidal efficacy, scale of 0-10 (Xanthium strumarium [2]; spray amount 200 g/ha, Table 5) | AESIN (Aeschynomene indica) herbicidal efficacy, scale of 0-10 (Aeschynomene indica [3]; spray amount 200 g/ha, Table 5) | IPOAN (Quamoclit pennata) herbicidal efficacy, scale of 0-10 (Quamoclit pennata [4]; spray amount 200 g/ha, Table 5) | PRE ABUTH (Abutilon theophrasti Medicus), efficacy score ([5]; Table 3, 200 g/ha) | PRE XANST (Xanthium strumarium), efficacy score (Xanthium strumarium [6]; Table 3, 200 g/ha) | also measured
1 | Nc1cc(C2CC(Cl)=NO2)nc(C(=O)Oc2ccccc2)c1Cl (centres unmarked) [Compound 94, phenyl 4-amino-3-chloro-6-(3-chloro-4,5-dihydroisoxazol-5-yl)picolinate] | 10 | 10 | 10 | 8 | 10 | 10 | 10 | 10 | 0 | 7 | 2 | 0 | 3 | 0 | – | – | – | – | – | – | –
2 | COC(=O)c1nc(C2CC(Br)=NO2)cc(NC(C)=O)c1Cl (centres unmarked) [Compound 3, methyl 4-acetamido-3-chloro-6-(3-bromo-4,5-dihydroisoxazol-5-yl)picolinate] | – | – | – | – | – | – | – | – | – | – | – | – | – | – | 3 | 10 | 10 | 6 | 10 | 8 | PRE AESIN (Aeschynomene indica), efficacy score (Aeschynomene indica [7]; Table 3, 200 g/ha): 10; PRE IPOAN (Quamoclit pennata), efficacy score (Quamoclit pennata [8]; Table 3, 200 g/ha): 8; PRE TRZAW (wheat), damage score (wheat [9]; Table 3, 200 g/ha): 0; PRE ORYSA (rice), damage score (rice [10]; Table 3, 200 g/ha): 0; PRE ZEAMX (maize), damage score (maize [11]; Table 3, 200 g/ha): 0; TRZAW (wheat) damage, scale of 0-10 (wheat [12]; spray amount 200 g/ha, Table 5): 0; ORYSA (rice) damage, scale of 0-10 (rice [13]; spray amount 200 g/ha, Table 5): 0; ZEAMX (maize) damage, scale of 0-10 (maize [14]; spray amount 200 g/ha, Table 5): 0
3 | COC(=O)c1nc(C2CC(C(F)(F)F)=NO2)cc(NC(C)=O)c1Cl (centres unmarked) [Compound 4, methyl 4-acetamido-3-chloro-6-(3-(trifluoromethyl)-4,5-dihydroisoxazol-5-yl)picolinate] | – | – | – | – | – | – | – | – | – | – | – | – | – | – | 3 | 8 | 10 | 3 | 6 | 6 | PRE AESIN (Aeschynomene indica), efficacy score (Aeschynomene indica [7]; Table 3, 200 g/ha): 8; PRE IPOAN (Quamoclit pennata), efficacy score (Quamoclit pennata [8]; Table 3, 200 g/ha): 7; PRE TRZAW (wheat), damage score (wheat [9]; Table 3, 200 g/ha): 0; PRE ORYSA (rice), damage score (rice [10]; Table 3, 200 g/ha): 0; PRE ZEAMX (maize), damage score (maize [11]; Table 3, 200 g/ha): 0; TRZAW (wheat) damage, scale of 0-10 (wheat [12]; spray amount 200 g/ha, Table 5): 0; ORYSA (rice) damage, scale of 0-10 (rice [13]; spray amount 200 g/ha, Table 5): 0; ZEAMX (maize) damage, scale of 0-10 (maize [14]; spray amount 200 g/ha, Table 5): 0
4 | Nc1cc(C2CC(Br)=NO2)nc(C(=O)OCc2ccc(F)cc2)c1Cl (centres unmarked) [Compound 90, 4-fluorobenzyl 4-amino-6-(3-bromo-4,5-dihydroisoxazol-5-yl)-3-chloropicolinate] | 5 | 10 | 7 | 4 | 3 | 7 | 10 | 3 | 0 | 0 | 0 | 0 | 0 | 0 | – | – | – | – | – | – | –
5 | Nc1cc(C2CC(Cl)=NO2)nc(C(=O)OCc2ccccc2)c1Cl (centres unmarked) [Compound 95, benzyl 4-amino-3-chloro-6-(3-chloro-4,5-dihydroisoxazol-5-yl)picolinate] | 10 | 10 | 10 | 8 | 10 | 10 | 10 | 0 | 0 | 6 | 0 | 1 | 1 | 1 | – | – | – | – | – | – | –
6 | COC(=O)c1nc(C2CC(Cl)=NO2)cc(N)c1Cl (centres unmarked) [Compound 37, methyl 4-amino-3-chloro-6-(3-chloro-4,5-dihydroisoxazol-5-yl)picolinate] | 10 | 10 | 10 | 8 | 10 | 10 | 10 | 7 | 0 | 1 | 0 | 0 | 0 | 0 | 10 | 10 | 10 | 8 | 10 | 10 | PRE AESIN (Aeschynomene indica), efficacy score (Aeschynomene indica [7]; Table 3, 200 g/ha): 10; PRE IPOAN (Quamoclit pennata), efficacy score (Quamoclit pennata [8]; Table 3, 200 g/ha): 10; PRE TRZAW (wheat), damage score (wheat [9]; Table 3, 200 g/ha): 0; PRE ORYSA (rice), damage score (rice [10]; Table 3, 200 g/ha): 0; PRE ZEAMX (maize), damage score (maize [11]; Table 3, 200 g/ha): 0; TRZAW (wheat) damage, scale of 0-10 (wheat [12]; spray amount 200 g/ha, Table 5): 1; ORYSA (rice) damage, scale of 0-10 (rice [13]; spray amount 200 g/ha, Table 5): 1; ZEAMX (maize) damage, scale of 0-10 (maize [14]; spray amount 200 g/ha, Table 5): 0
